We go through 26 molecules from ChEMBL document CHEMBL3616461, “Design, synthesis and biological evaluation of novel pyrazolo-pyrimidinones as DPP-IV inhibitors in diabetes” (Bioorg Med Chem Lett, 2015).

Each structure is given as a SMILES string.

One data set has as its target Dipeptidyl peptidase 4 (Homo sapiens, UniProt P27487). The data set can be described thus: Inhibition of human recombinant DPP-4 using Gly-pro-p-nitroanilide as substrate assessed as formation of p-nitroaniline after 30 mins by colorimetric assay.
The nature of data set [1]: Cytotoxicity against rat macrophages by MTS/PMS assay. The data set is classed as cell-based. The note with it: macrophage.
Data set [2] relates to Rattus norvegicus. The data set is described as follows: Antidiabetic activity in high-fat-diet and low dose streptozotocin-induced diabetic Wistar rat assessed as blood glucose level at 50 mg/kg, po after 15 days (reference value: 515 mg/dl). The class given is functional.
In data set [3] the test system is Rattus norvegicus. The data set can be described thus: Antidiabetic activity in high-fat-diet and low dose streptozotocin-induced diabetic Wistar rat assessed as blood glucose level at 10 mg/kg, po after 15 days (reference value: 515 mg/dl). The data set is classed as functional.

Dipeptidyl peptidase 4, sequence (P27487 whole entry): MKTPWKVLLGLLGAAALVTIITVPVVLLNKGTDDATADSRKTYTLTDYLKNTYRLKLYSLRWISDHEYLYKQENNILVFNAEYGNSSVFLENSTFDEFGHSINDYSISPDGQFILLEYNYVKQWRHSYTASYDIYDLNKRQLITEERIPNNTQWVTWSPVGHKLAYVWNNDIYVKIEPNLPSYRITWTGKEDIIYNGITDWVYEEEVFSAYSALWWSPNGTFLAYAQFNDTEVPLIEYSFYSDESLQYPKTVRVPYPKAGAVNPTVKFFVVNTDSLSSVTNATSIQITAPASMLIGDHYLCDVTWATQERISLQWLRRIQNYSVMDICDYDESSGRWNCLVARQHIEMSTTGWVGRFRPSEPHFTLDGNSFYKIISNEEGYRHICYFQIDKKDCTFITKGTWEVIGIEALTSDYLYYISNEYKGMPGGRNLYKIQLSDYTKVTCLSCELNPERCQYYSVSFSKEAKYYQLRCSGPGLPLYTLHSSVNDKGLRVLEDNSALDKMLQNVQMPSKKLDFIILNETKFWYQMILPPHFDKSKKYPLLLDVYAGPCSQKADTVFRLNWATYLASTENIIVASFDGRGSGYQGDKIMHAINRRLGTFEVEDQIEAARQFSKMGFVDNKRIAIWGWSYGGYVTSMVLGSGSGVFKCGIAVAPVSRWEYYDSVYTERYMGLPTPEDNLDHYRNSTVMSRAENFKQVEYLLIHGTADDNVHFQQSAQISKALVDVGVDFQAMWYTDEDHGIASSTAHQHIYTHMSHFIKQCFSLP

With `Cc1nc2c(cnn2-c2ccccc2)c(=O)n1-c1ccccc1`, the IC50 result at Dipeptidyl peptidase 4 is reported as “Not Active”. The Activity result in data set [1] is recorded as “Non-toxic”. Turning to `Cc1nc2c(cnn2-c2ccccc2)c(=O)n1-c1ccc(F)cc1`, the IC50 result on Dipeptidyl peptidase 4 was “Not Active”. Further, in data set [1], the Activity result was “Non-toxic”.

As to `CCc1ccc(-n2c(C)nc3c(cnn3-c3ccccc3)c2=O)cc1`, the IC50 result on Dipeptidyl peptidase 4 is reported as “Not Active”. The Activity result in data set [1] is reported as “Non-toxic”.

On to `Cc1cc(C)c(-n2c(C)nc3c(cnn3-c3ccccc3)c2=O)c(C)c1`, for which the Activity in the data set with Rattus norvegicus [2] was 162.6 mg/dL; in data set [1], “Non-toxic”. With `COc1ccc(-n2ncc3c(=O)n(-c4ccc(F)cc4)c(C)nc32)cc1`, the IC50 entry at Dipeptidyl peptidase 4 is recorded as “Not Active”. For the same molecule, the Activity result in data set [1] is “Non-toxic”. As for `Cc1nc2c(cnn2-c2ccccc2)c(=O)n1Cc1ccccc1`, the IC50 entry at Dipeptidyl peptidase 4 is recorded as “Not Active”. Also, the Activity entry in data set [1] was “Non-toxic”.

For the molecule `Cc1nc2c(cnn2-c2ccccc2)c(=O)n1-c1ccc(F)cc1F`, the IC50 entry on Dipeptidyl peptidase 4 is reported as “Not Active”. The Activity entry in data set [1] is on record as “Non-toxic”. Regarding `Cc1nc2c(cnn2-c2ccccc2)c(=O)n1-c1ccccn1`, the Activity entry in data set [1] is listed as “Non-toxic”. Turning to `Cc1nc2c(cnn2-c2ccccc2)c(=O)n1-c1ncccn1`, the Activity result in data set [1] is “Non-toxic”. As for `Cc1ccnc(-n2c(C)nc3c(cnn3-c3ccccc3)c2=O)c1`, the Activity is 198.5 mg/dL in the data set with Rattus norvegicus [2] and “Non-toxic” in data set [1]. Take `Cc1nc2c(cnn2-c2ccccc2)c(=O)n1-c1ccc(Br)cn1`: the Activity result in data set [1] was “Non-toxic”.

Consider `Cc1nc2c(cnn2-c2ccccc2)c(=O)n1-c1ccc([N+](=O)[O-])cn1`, for which the IC50 result on Dipeptidyl peptidase 4 is reported as “Not Active”. Besides, the Activity result in data set [1] was “Non-toxic”. `COc1ccc(-n2ncc3c(=O)n(-c4ccccn4)c(C)nc32)cc1`: at Dipeptidyl peptidase 4, the IC50 entry was “Not Active”. The Activity entry in data set [1] is “Non-toxic”. Regarding `COc1ccc(-n2ncc3c(=O)n(-c4cc(C)ccn4)c(C)nc32)cc1`, the Activity result in data set [1] is given as “Non-toxic”.

`COc1ccc(-n2ncc3c(=O)n(-c4ccc(Br)cn4)c(C)nc32)cc1`: the IC50 entry at Dipeptidyl peptidase 4 was “Not Active”. Also, in data set [1], the Activity entry is “Non-toxic”. For `COc1ccc(-n2ncc3c(=O)n(-c4ccc([N+](=O)[O-])cn4)c(C)nc32)cc1`, the IC50 entry at Dipeptidyl peptidase 4 is on record as “Not Active”. The Activity entry in data set [1] is on record as “Non-toxic”. Regarding `COc1ccc(-n2ncc3c(=O)n(-c4nc(-c5ccc(Cl)cc5)cs4)c(C)nc32)cc1`, in data set [1], the Activity entry was “Non-toxic”. With `CCOC(=O)c1sc(-n2c(C)nc3c(cnn3-c3ccccc3)c2=O)c(C(=O)OCC)c1C`, the IC50 result on Dipeptidyl peptidase 4 is “Not Active”. Besides, the Activity result in data set [1] is on record as “Non-toxic”. `CCOC(=O)c1sc(-n2c(C)nc3c(cnn3-c3ccc(OC)cc3)c2=O)c(C(=O)OCC)c1C`: at Dipeptidyl peptidase 4, the IC50 result was “Not Active”. Besides, in data set [1], the Activity result was “Non-toxic”. For the molecule `O=C(Nc1ccc(F)cc1)c1cnn(-c2ccccc2)c1NC(=O)C(F)(F)F`, the Activity is 193.2 mg/dL in the data set with Rattus norvegicus [2] and “Non-toxic” in data set [1].

On to `O=C(Nc1ccc(Cl)cc1)c1cnn(-c2ccccc2)c1NC(=O)C(F)(F)F`, for which, at Dipeptidyl peptidase 4, the IC50 entry was “Not Active”. Also, the Activity result in data set [1] is given as “Non-toxic”. In the case of `CC(=O)Nc1c(C(=O)Nc2ccc(Br)cn2)cnn1-c1ccccc1`, at Dipeptidyl peptidase 4, the IC50 result is recorded as “Not Active”. Also, the Activity entry in data set [1] is recorded as “Non-toxic”. For `CC(=O)Nc1c(C(=O)Nc2nc(-c3ccc(Cl)cc3)cs2)cnn1-c1ccccc1`, the IC50 result on Dipeptidyl peptidase 4 is “Not Active”. For the same molecule, in data set [1], the Activity entry is listed as “Non-toxic”. On the same counts, the results for `CC(=O)Nc1c(C(=O)Nc2ccccn2)cnn1-c1ccccc1` are “Not Active” and “Non-toxic”.

For `Cc1nc2c(cnn2-c2ccccc2)c(=O)n1-c1cccc(Cl)c1`, the IC50 result on Dipeptidyl peptidase 4 is “Not Active”. Besides, the Activity result in data set [1] is “Non-toxic”. As to `N[C@@H](CC(=O)N1CCn2c(nnc2C(F)(F)F)C1)Cc1cc(F)c(F)cc1F` [SITAGLIPTIN], the Activity was 136.4 mg/dL with Rattus norvegicus [3] and “Non-toxic” in data set [1].
